From PubChem BioAssay AID268 (DTP/NCI, 2004)
Values joined by “and” are separate entries in the source; they are usually repeats but may differ in a detail not shown here. Equal entries are not always repeated.

Test system: CD2F1 mice, P1798 lymphosarcoma sc, tumor weight T/C
Assay: NCI In Vivo Anticancer Drug Screen. Data for tumor model P1798 Lymphosarcoma (subcutaneous) in CD2F1 (CDF1) mice
Details: endpoint: mean tumor weight, higher = larger tumour
Experimental: The antitumor activity of compounds was measured in mice bearing transplantable tumors. Survival or tumor size were measured and the results are expressed as the measurement made in the treated group (T) divided by the measurement made in the vehicle treated control group (C). The tumor model used in this assay is P1798 Lymphosarcoma (subcutaneous) in CD2F1 (CDF1) mice

[1] = dose: 20.0 mg/kg/injection, schedule: Q01DX010 (ip), vehicle: saline
[2] = dose: 100.0 mg/kg/injection, schedule: Q01DX010 (ip), vehicle: saline
[3] = dose: 200.0 mg/kg/injection, schedule: Q01DX010 (ip), vehicle: saline
[4] = dose: 400.0 mg/kg/injection, schedule: Q01DX010 (ip), vehicle: saline
[5] = dose: 0.63 mg/kg/injection, schedule: Q01DX010 (ip), vehicle: saline
[6] = dose: 1.25 mg/kg/injection, schedule: Q01DX010 (ip), vehicle: saline
[7] = dose: 2.5 mg/kg/injection, schedule: Q01DX010 (ip), vehicle: saline
[8] = dose: 12.5 mg/kg/injection, schedule: Q01DX010 (ip), vehicle: saline
[9] = dose: 25.0 mg/kg/injection, schedule: Q01DX010 (ip), vehicle: saline
[10] = dose: 3.13 mg/kg/injection, schedule: Q01DX010 (ip), vehicle: saline
[11] = dose: 6.25 mg/kg/injection, schedule: Q01DX010 (ip), vehicle: saline

For `CC(C)(O)/C=C/C(=O)[C@](C)(O)[C@H]1[C@H](O)C[C@@]2(C)[C@@H]3CC=C4[C@@H](C[C@H](O)C(=O)C4(C)C)[C@]3(C)C(=O)C[C@]12C`, the T/C (dose: 0.2 mg/kg/injection, schedule: Q01DX009 (ip), vehicle: saline) was 91 % of control, the T/C (dose: 0.4 mg/kg/injection, schedule: Q01DX009 (ip), vehicle: saline) was 81 % of control and the T/C (dose: 0.8 mg/kg/injection, schedule: Q01DX009 (ip), vehicle: saline) was 95 % of control.

In the case of `C=C(C)C(=O)O[C@H]1CC2=C[C@@H](C[C@@]3(C)O[C@@H]3[C@H]3OC(=O)C(=C)[C@@H]31)OC2=O`, the T/C (dose: 2.5 mg/kg/injection, schedule: Q01DX011 (sc), vehicle: saline) is reported as 94 % of control, the T/C (dose: 5.0 mg/kg/injection, schedule: Q01DX011 (sc), vehicle: saline) is reported as 73 % of control and the T/C (dose: 10.0 mg/kg/injection, schedule: Q01DX011 (sc), vehicle: saline) is reported as 116 % of control.

In the case of `S=P(N1CCOCC1)(N1CC1)N1CC1`, the T/C (dose: 10.0 mg/kg/injection, schedule: Q01DX010 (ip), vehicle: saline) is reported as 50 % of control and 75 % of control and the T/C [1] is reported as 24 % of control.

`C[C@@H]1C[C@@]2(C)[C@@H](CC[C@@H]3[C@@H]2CC[C@]2(C)[C@@H](O)CC[C@@H]32)CC1=O` was tested, and the T/C (dose: 12.5 mg/kg/injection, schedule: Q01DX010 (sc), vehicle: steriod suspending solution) was 118 % of control and 124 % of control, the T/C (dose: 25.0 mg/kg/injection, schedule: Q01DX010 (sc), vehicle: steriod suspending solution) was 100 % of control and 107 % of control and the T/C (dose: 50.0 mg/kg/injection, schedule: Q01DX010 (sc), vehicle: steriod suspending solution) was 101 % of control and 111 % of control. For the same molecule, the T/C (dose: 100.0 mg/kg/injection, schedule: Q01DX010 (sc), vehicle: steriod suspending solution) was 109 % of control and 121 % of control.

`N#Cc1ccc(S(N)(=O)=O)cc1` was tested, and the T/C (dose: 22.0 mg/kg/injection, schedule: Q01DX010 (ip), vehicle: saline) was 70 % of control, the T/C (dose: 33.0 mg/kg/injection, schedule: Q01DX010 (ip), vehicle: saline) was 54 % of control and the T/C (dose: 49.0 mg/kg/injection, schedule: Q01DX010 (ip), vehicle: saline) was 67 % of control. The T/C (dose: 73.0 mg/kg/injection, schedule: Q01DX010 (ip), vehicle: saline) was 35 % of control.

With `N#CCCCCCNC(=O)CCCCC(=O)NCCCCCC#N` the T/C [2] was 85 % of control, the T/C [3] was 111 % of control and the T/C [4] was 87 % of control.

With `Nc1nc(F)nc2c1ncn2C1OC(CO)C(O)C1O` (centres undefined) the T/C (dose: 0.5 mg/kg/injection, schedule: Q01DX010 (ip), vehicle: saline) was 76 % of control, the T/C (dose: 1.0 mg/kg/injection, schedule: Q01DX010 (ip), vehicle: saline) was 94 % of control and the T/C (dose: 2.0 mg/kg/injection, schedule: Q01DX010 (ip), vehicle: saline) was 73 % of control. The T/C (dose: 3.0 mg/kg/injection, schedule: Q01DX010 (ip), vehicle: saline) was 62 % of control and the T/C (dose: 4.0 mg/kg/injection, schedule: Q01DX010 (ip), vehicle: saline) was 35 % of control.

In the case of `CN[C@H]1CCc2cc(OC)c(OC)c(OC)c2-c2ccc(OC)c(=O)cc21`, the T/C (dose: 0.63 mg/kg/injection, schedule: Q01DX010 (ip), vehicle: other) is reported as 108 % of control, the T/C [5] is reported as 59 % of control and the T/C (dose: 1.25 mg/kg/injection, schedule: Q01DX010 (ip), vehicle: other) is reported as 116 % of control. The T/C [6] was 82 % of control, the T/C (dose: 2.5 mg/kg/injection, schedule: Q01DX010 (ip), vehicle: other) was 112 % of control and the T/C [7] was 57 % of control. The T/C (dose: 5.0 mg/kg/injection, schedule: Q01DX010 (ip), vehicle: other) was 96 % of control and the T/C (dose: 5.0 mg/kg/injection, schedule: Q01DX010 (ip), vehicle: saline) was 32 % of control.

In the case of `Nc1ncnc2c1ccn2C1OC(CO)C(O)C1O` (centres undefined), the T/C (dose: 0.32 mg/kg/injection, schedule: Q01DX010 (ip), vehicle: saline) is reported as 97 % of control, the T/C [5] is reported as 101 % of control and the T/C [6] is reported as 84 % of control.

In the case of `O=C1C=Cc2ccc(O)cc2C1=O`, the T/C [6] is reported as 72 % of control and the T/C [7] is reported as 63 % of control.

For `OCC1OC(n2cnc3c(Cl)ncnc32)C(O)C1O` (centres undefined), the T/C (dose: 250.0 mg/kg/injection, schedule: Q01DX010 (ip), vehicle: saline) was 95 % of control and 103 % of control.

For `CC(=O)OCC(=O)[C@@]1(O)CC[C@H]2[C@@H]3CCC4=CC(=O)C=C[C@]4(C)[C@H]3[C@@H](O)C[C@@]21C`, the T/C (dose: 2.5 mg/kg/injection, schedule: Q01DX Z (sc), vehicle: steriod suspending solution) was 92 % of control, the T/C (dose: 5.0 mg/kg/injection, schedule: Q01DX010 (sc), vehicle: steriod suspending solution) was 20 % of control and the T/C (dose: 5.0 mg/kg/injection, schedule: Q01DX Z (sc), vehicle: steriod suspending solution) was 107 % of control. For the same molecule, the T/C (dose: 10.0 mg/kg/injection, schedule: Q01DX010 (sc), vehicle: steriod suspending solution) was 4 % of control, the T/C (dose: 10.0 mg/kg/injection, schedule: Q01DX Z (sc), vehicle: steriod suspending solution) was 100 % of control and 88 % of control and the T/C (dose: 20.0 mg/kg/injection, schedule: Q01DX010 (sc), vehicle: steriod suspending solution) was 5 % of control. For the same molecule, the T/C (dose: 20.0 mg/kg/injection, schedule: Q01DX Z (sc), vehicle: steriod suspending solution) was 119 % of control, the T/C (dose: 40.0 mg/kg/injection, schedule: Q01DX010 (sc), vehicle: steriod suspending solution) was 5 % of control and the T/C (dose: 40.0 mg/kg/injection, schedule: Q01DX Z (sc), vehicle: steriod suspending solution) was 77 % of control. For the same molecule, the T/C (dose: 80.0 mg/kg/injection, schedule: Q01DX Z (sc), vehicle: steriod suspending solution) was 57 % of control.

In the case of `CN(C)CCCN1c2ccccc2Sc2ccc(C(F)(F)F)cc21`, the T/C [8] is reported as 55 % of control and the T/C [9] is reported as 19 % of control.

For `Oc1cc(CN(CCCl)CCCl)c(O)cc1CN(CCCl)CCCl`, the T/C [5] was 71 % of control and 86 % of control, the T/C [6] was 64 % of control and 88 % of control and the T/C [7] was 42 % of control and 64 % of control.

With `COc1cc([C@@H]2c3cc4c(cc3[C@H](O)[C@H]3COC(=O)[C@H]23)OCO4)cc(OC)c1OC` the T/C (dose: 0.9 mg/kg/injection, schedule: Q01DX011 (ip), vehicle: carboxymethylcellulose (CMC)) was 56 % of control, the T/C (dose: 1.7 mg/kg/injection, schedule: Q01DX011 (ip), vehicle: carboxymethylcellulose (CMC)) was 111 % of control and the T/C (dose: 2.2 mg/kg/injection, schedule: Q01DX011 (ip), vehicle: carboxymethylcellulose (CMC)) was 80 % of control.

`O=C(C(=O)N1CC1)c1c[nH]c2ccccc12` was tested, and the T/C [10] was 90 % of control, the T/C [11] was 105 % of control and the T/C [8] was 92 % of control and 99 % of control. For the same molecule, the T/C [9] was 108 % of control.

`O=C1NC2C(NC(=O)N2Cl)N1Cl` (centres undefined) was tested, and the T/C [1] was 80 % of control, the T/C (dose: 40.0 mg/kg/injection, schedule: Q01DX010 (ip), vehicle: saline) was 90 % of control and the T/C (dose: 80.0 mg/kg/injection, schedule: Q01DX010 (ip), vehicle: saline) was 76 % of control.

In the case of `CO[C@@H]1[C@@H](OC2OC(C)C(OC3CC(C)(O)C(OC(=O)CC(C)C)C(C)O3)C(N(C)C)C2O)[C@@H](CC=O)C[C@@H](C)C(=O)/C=C/C2O[C@H]2C[C@@H](C)OC(=O)C[C@H]1OC(C)=O` (some centres undefined), the T/C (dose: 50.0 mg/kg/injection, schedule: Q01DX010 (ip), vehicle: saline) is reported as 89 % of control, the T/C (dose: 75.0 mg/kg/injection, schedule: Q01DX010 (ip), vehicle: saline) is reported as 105 % of control and the T/C [2] is reported as 90 % of control. For the same molecule, the T/C (dose: 150.0 mg/kg/injection, schedule: Q01DX010 (ip), vehicle: saline) was 90 % of control, the T/C [3] was 95 % of control and the T/C (dose: 300.0 mg/kg/injection, schedule: Q01DX010 (ip), vehicle: saline) was 21 % of control. The T/C [4] was 71 % of control.

For `CC(/C=N/N=C(N)N)=N\N=C(N)N`, the T/C (dose: 15.0 mg/kg/injection, schedule: Q01DX010 (ip), vehicle: saline) was 78 % of control, the T/C (dose: 30.0 mg/kg/injection, schedule: Q01DX010 (ip), vehicle: saline) was 87 % of control and the T/C (dose: 60.0 mg/kg/injection, schedule: Q01DX010 (ip), vehicle: saline) was 50 % of control.

In the case of `COc1cc(C[C@H]2c3cc(OC)c(OC)cc3CCN2C)c(Oc2cc3c(cc2OC)-c2c(OC)c(OC)cc4c2[C@H](C3)N(C)CC4)cc1OC`, the T/C (dose: 50.0 mg/kg/injection, schedule: Q01DX011 (ip), vehicle: carboxymethylcellulose (CMC)) is reported as 13 % of control.

`O=C(O)C(=O)O.[U]` was tested, and the T/C (dose: 1.56 mg/kg/injection, schedule: Q01DX010 (ip), vehicle: saline) was 64 % of control, the T/C [10] was 45 % of control and the T/C [11] was 28 % of control. The T/C [8] was 30 % of control.

In the case of `CN(C)N=Nc1cccc([N+](=O)[O-])c1`, the T/C (dose: 55.0 mg/kg/injection, schedule: Q01DX011 (ip), vehicle: saline) is reported as 82 % of control, the T/C (dose: 80.0 mg/kg/injection, schedule: Q01DX011 (ip), vehicle: saline) is reported as 188 % of control and the T/C (dose: 120.0 mg/kg/injection, schedule: Q01DX011 (ip), vehicle: saline) is reported as 89 % of control. The T/C (dose: 178.0 mg/kg/injection, schedule: Q01DX010 (ip), vehicle: saline) was 49 % of control, the T/C (dose: 178.0 mg/kg/injection, schedule: Q01DX011 (ip), vehicle: saline) was 113 % of control and the T/C (dose: 267.0 mg/kg/injection, schedule: Q01DX010 (ip), vehicle: saline) was 74 % of control.
